The supplement of paper PMC10307832

Key:
Experiment in all cases: relative viability (nuclei count vs DMSO), 5 days (fraction); higher = more cells survive
NCI-H520 = tested on: NCI-H520
Outline: (§1)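 For relative viability, nuclei counts in treated wells were divided by those in vehicle wells. Lung cancer cell lines had been pin-tool dosed in 1536-well plates the day after seeding and cultured for 5 days, then fixed and stained in one step (final 0.05% Triton X-100, 1% formaldehyde, 1 ug/ml Hoechst) and imaged at 4×. Doses were one drug alone or a fixed anchor-drug dose plus five library-drug doses (not always all listed) in √10 steps, and values are duplicate-plate medians.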

NCI-H661 = tested on: NCI-H661
Outline: as §1

NCI-H2342 = tested on: NCI-H2342
Outline: as §1

ChaGo-K-1 = tested on: ChaGo-K-1
Outline: as §1

NCI-H1666 = tested on: NCI-H1666
Outline: as §1

NCI-H2170 = tested on: NCI-H2170
Outline: as §1

HOP-62 = tested on: HOP-62
Outline: as §1

NCI-H838 = tested on: NCI-H838
Outline: as §1

NCI-H1993 = tested on: NCI-H1993
Outline: as §1

CAL-12T = tested on: CAL-12T
Outline: as §1

NCI-H2085 = tested on: NCI-H2085
Outline: as §1

NCI-H1355 = tested on: NCI-H1355
Outline: as §1

NCI-H1734 = tested on: NCI-H1734
Outline: as §1

COR-L23 = tested on: COR-L23
Outline: as §1

RERF-LC-KJ = tested on: RERF-LC-KJ
Outline: as §1

NCI-H1651 = tested on: NCI-H1651
Outline: as §1

NCI-H322M = tested on: NCI-H322M
Outline: as §1

201T = tested on: 201T
Outline: as §1

LC-2-ad = tested on: LC-2-ad
Outline: as §1

NCI-H1944 = tested on: NCI-H1944
Outline: as §1

NCI-H2228 = tested on: NCI-H2228
Outline: as §1

NCI-H1395 = tested on: NCI-H1395
Outline: as §1

COCC1(CO)C(=O)C2CCN1CC2 (stereo not given) [PRIMA-1MET] + CC(=O)c1c(C)c2cnc(Nc3ccc(N4CCNCC4)cn3)nc2n(C2CCCC2)c1=O [Palbociclib] (partner 0.5 µM)
relative viability (NCI-H520; first compound 0.2 µM): 0.249 | relative viability (NCI-H520; first compound 2 µM): 0.202 | relative viability (NCI-H520; first compound 6.325 µM): 0.216 | relative viability (NCI-H520; first compound 20 µM): 0.142 | relative viability (NCI-H661; first compound 0.2 µM): 0.418 | relative viability (NCI-H661; first compound 0.6325 µM): 0.391 | relative viability (NCI-H661; first compound 2 µM): 0.414 | relative viability (NCI-H661; first compound 6.325 µM): 0.423 | relative viability (NCI-H661; first compound 20 µM): 0.446 | relative viability (NCI-H2342; first compound 0.2 µM): 0.602 | relative viability (NCI-H2342; first compound 0.6325 µM): 0.452 | relative viability (NCI-H2342; first compound 6.325 µM): 0.535 | relative viability (NCI-H2342; first compound 20 µM): 0.463 | relative viability (ChaGo-K-1; first compound 0.2 µM): 0.989 | relative viability (ChaGo-K-1; first compound 0.6325 µM): 0.897 | relative viability (ChaGo-K-1; first compound 2 µM): 0.917 | relative viability (ChaGo-K-1; first compound 6.325 µM): 0.906 | relative viability (ChaGo-K-1; first compound 20 µM): 0.836 | relative viability (NCI-H1666; first compound 0.2 µM): 0.69 | relative viability (NCI-H1666; first compound 0.6325 µM): 0.647 | relative viability (NCI-H1666; first compound 2 µM): 0.614 | relative viability (NCI-H1666; first compound 6.325 µM): 0.699 | relative viability (NCI-H1666; first compound 20 µM): 0.695 | relative viability (NCI-H2170; first compound 0.2 µM): 0.422 | relative viability (NCI-H2170; first compound 0.6325 µM): 0.36 | relative viability (NCI-H2170; first compound 2 µM): 0.391 | relative viability (NCI-H2170; first compound 6.325 µM): 0.449 | relative viability (NCI-H2170; first compound 20 µM): 0.379 | relative viability (HOP-62; first compound 0.2 µM): 0.549 | relative viability (HOP-62; first compound 0.6325 µM): 0.385 | relative viability (HOP-62; first compound 2 µM): 0.469 | relative viability (HOP-62; first compound 6.325 µM): 0.475 | relative viability (HOP-62; first compound 20 µM): 0.317 | relative viability (NCI-H838; first compound 0.2 µM): 0.261 | relative viability (NCI-H838; first compound 0.6325 µM): 0.188 | relative viability (NCI-H838; first compound 2 µM): 0.207 | relative viability (NCI-H838; first compound 6.325 µM): 0.22 | relative viability (NCI-H838; first compound 20 µM): 0.232 | relative viability (NCI-H1993; first compound 0.2 µM): 0.668 | relative viability (NCI-H1993; first compound 2 µM): 0.715 | relative viability (NCI-H1993; first compound 6.325 µM): 0.698 | relative viability (NCI-H1993; first compound 20 µM): 0.703 | relative viability (CAL-12T; first compound 0.2 µM): 0.339 | relative viability (CAL-12T; first compound 0.6325 µM): 0.373 | relative viability (CAL-12T; first compound 2 µM): 0.446 | relative viability (CAL-12T; first compound 6.325 µM): 0.439 | relative viability (CAL-12T; first compound 20 µM): 0.0494 | relative viability (NCI-H2085; first compound 0.2 µM): 0.526 | relative viability (NCI-H2085; first compound 0.6325 µM): 0.515 | relative viability (NCI-H2085; first compound 2 µM): 0.475 | relative viability (NCI-H2085; first compound 6.325 µM): 0.472 | relative viability (NCI-H2085; first compound 20 µM): 0.166 | relative viability (NCI-H1355; first compound 0.2 µM): 0.465 | relative viability (NCI-H1355; first compound 0.6325 µM): 0.393 | relative viability (NCI-H1355; first compound 2 µM): 0.328 | relative viability (NCI-H1355; first compound 6.325 µM): 0.436 | relative viability (NCI-H1355; first compound 20 µM): 0.414 | relative viability (NCI-H1734; first compound 0.2 µM): 0.362 | relative viability (NCI-H1734; first compound 0.6325 µM): 0.306 | relative viability (NCI-H1734; first compound 2 µM): 0.369 | relative viability (NCI-H1734; first compound 6.325 µM): 0.345 | relative viability (NCI-H1734; first compound 20 µM): 0.053 | relative viability (COR-L23; first compound 0.2 µM): 0.291 | relative viability (COR-L23; first compound 0.6325 µM): 0.191 | relative viability (COR-L23; first compound 2 µM): 0.251 | relative viability (COR-L23; first compound 6.325 µM): 0.353 | relative viability (COR-L23; first compound 20 µM): 0.0222 | relative viability (RERF-LC-KJ; first compound 0.2 µM): 1.13 | relative viability (RERF-LC-KJ; first compound 0.6325 µM): 1.13 | relative viability (RERF-LC-KJ; first compound 2 µM): 0.978 | relative viability (RERF-LC-KJ; first compound 6.325 µM): 1.08 | relative viability (RERF-LC-KJ; first compound 20 µM): 1.04 | relative viability (NCI-H1651; first compound 0.2 µM): 0.602 | relative viability (NCI-H1651; first compound 0.6325 µM): 0.389 | relative viability (NCI-H1651; first compound 2 µM): 0.473 | relative viability (NCI-H1651; first compound 6.325 µM): 0.569 | relative viability (NCI-H1651; first compound 20 µM): 0.526 | relative viability (NCI-H322M; first compound 0.2 µM): 0.535 | relative viability (NCI-H322M; first compound 0.6325 µM): 0.515 | relative viability (NCI-H322M; first compound 6.325 µM): 0.525 | relative viability (NCI-H322M; first compound 20 µM): 0.34 | relative viability (201T; first compound 0.2 µM): 0.386 | relative viability (201T; first compound 0.6325 µM): 0.356 | relative viability (201T; first compound 2 µM): 0.331 | relative viability (201T; first compound 6.325 µM): 0.352 | relative viability (201T; first compound 20 µM): 0.331 | relative viability (LC-2-ad; first compound 0.2 µM): 0.496 | relative viability (LC-2-ad; first compound 0.6325 µM): 0.484 | relative viability (LC-2-ad; first compound 2 µM): 0.525 | relative viability (LC-2-ad; first compound 6.325 µM): 0.457 | relative viability (LC-2-ad; first compound 20 µM): 0.468 | relative viability (NCI-H1944; first compound 0.2 µM): 0.357 | relative viability (NCI-H1944; first compound 0.6325 µM): 0.285 | relative viability (NCI-H1944; first compound 2 µM): 0.288 | relative viability (NCI-H1944; first compound 6.325 µM): 0.312 | relative viability (NCI-H1944; first compound 20 µM): 0.295 | relative viability (NCI-H2228; first compound 0.2 µM): 0.631 | relative viability (NCI-H2228; first compound 0.6325 µM): 0.778 | relative viability (NCI-H2228; first compound 2 µM): 0.742 | relative viability (NCI-H2228; first compound 6.325 µM): 0.402 | relative viability (NCI-H2228; first compound 20 µM): 0.0392 | relative viability (NCI-H1395; first compound 0.2 µM): 0.665 | relative viability (NCI-H1395; first compound 2 µM): 0.641 | relative viability (NCI-H1395; first compound 6.325 µM): 0.656 | relative viability (NCI-H1395; first compound 20 µM): 0.578
